According to ChEMBL document CHEMBL3885881, “DrugMatrix”:

Species: Rattus norvegicus
Experiment: DrugMatrix - Regimen: Daily Repeat
Type: toxicity, organism-based, Sprague-Dawley
Design: regimen Daily Repeat, gender Male, age 6-8 weeks
Conditions: in vivo, po, route oral GAVAGE, vehicle .5 % CMC; for ABSOLUTE BASOPHIL / ABSOLUTE EOSINOPHIL / ABSOLUTE LYMPHOCYTE / ABSOLUTE MONOCYTE / ABSOLUTE SEGMENTED NEUTROPHIL / BASOPHIL / EOSINOPHIL / ERYTHROCYTE COUNT / HEMATOCRIT / HEMOGLOBIN / LEUKOCYTE COUNT / LYMPHOCYTE / MEAN CORPUSCULAR HEMOGLOBIN / MEAN CORPUSCULAR HEMOGLOBIN CONCENTRATION / MEAN CORPUSCULAR VOLUME / MONOCYTE / NEUTROPHIL / NUCLEATED RED BLOOD CELLS / PLATELET COUNT: tissue Blood; for ALANINE AMINOTRANSFERASE / ALBUMIN / ALKALINE PHOSPHATASE / ASPARTATE AMINOTRANSFERASE / BLOOD UREA NITROGEN / CARBON DIOXIDE / CHLORIDE / CHOLESTEROL / CREATINE PHOSPHOKINASE / CREATININE / GLUCOSE / LACTATE DEHYDROGENASE / LIPASE / PHOSPHORUS / POTASSIUM / SODIUM / TOTAL BILIRUBIN / TOTAL PROTEIN / URIC ACID: tissue Plasma
[1] = 80 mg/kg, 72 h, dose level Low, time 3 day
[2] = 80 mg/kg, 120 h, dose level Low, time 5 day
[3] = 1500 mg/kg, 72 h, dose level High, time 3 day
[4] = 1500 mg/kg, 120 h, dose level High, time 5 day

`Cc1cc(=O)n(-c2ccccc2)n1C` [ANTIPYRINE] was tested, and the “ABSOLUTE BASOPHIL” value [1] was 0 CELLS/uL, the “ABSOLUTE EOSINOPHIL” value [1] was 91.33 CELLS/uL and the “ABSOLUTE LYMPHOCYTE” value [1] was 12252 CELLS/uL. For the same compound, the “ABSOLUTE MONOCYTE” value [1] was 196 CELLS/uL, the “ABSOLUTE SEGMENTED NEUTROPHIL” value [1] was 1827.33 CELLS/uL and the BASOPHIL [1] was 0%. The EOSINOPHIL [1] was 0.67%, the “ERYTHROCYTE COUNT” value [1] was 5.35 x10E6/uL and the HEMATOCRIT [1] was 34.23%. For the same compound, the HEMOGLOBIN [1] was 13.5 G/DL, the “LEUKOCYTE COUNT” value [1] was 14.37 x10E3/uL and the LYMPHOCYTE [1] was 86%. For the same compound, the “MEAN CORPUSCULAR HEMOGLOBIN” value [1] was 25.27 pg, the “MEAN CORPUSCULAR HEMOGLOBIN CONCENTRATION” value [1] was 39.43 G/DL and the “MEAN CORPUSCULAR VOLUME” value [1] was 64 fL. For the same compound, the MONOCYTE [1] was 1.33%, the NEUTROPHIL [1] was 12% and the “NUCLEATED RED BLOOD CELLS” value [1] was 0.33 /100WBC. For the same compound, the “PLATELET COUNT” value [1] was 1283.67 x10E3/uL, the “ALANINE AMINOTRANSFERASE” value [1] was 47.67 u/L and the ALBUMIN [1] was 4.47 G/DL. For the same compound, the “ALKALINE PHOSPHATASE” value [1] was 419 u/L, the “ASPARTATE AMINOTRANSFERASE” value [1] was 82 u/L and the “BLOOD UREA NITROGEN” value [1] was 18 mg/dL. For the same compound, the “CARBON DIOXIDE” value [1] was 23.33 mmol/L, the CHLORIDE [1] was 103.67 MEQ/L and the CHOLESTEROL [1] was 77 mg/dL. For the same compound, the “CREATINE PHOSPHOKINASE” value [1] was 225 u/L, the CREATININE [1] was 0.22 mg/dL and the GLUCOSE [1] was 163 mg/dL. The “LACTATE DEHYDROGENASE” value [1] was 184 u/L, the LIPASE [1] was 9.67 u/L and the PHOSPHORUS [1] was 13.9 mg/dL. For the same compound, the POTASSIUM [1] was 7.07 MEQ/L, the SODIUM [1] was 147.1 MEQ/L and the “TOTAL BILIRUBIN” value [1] was 0.27 mg/dL. The “TOTAL PROTEIN” value [1] was 6.23 G/DL, the “URIC ACID” value [1] was 1.77 mg/dL and the “ABSOLUTE BASOPHIL” value [2] was 0 CELLS/uL. For the same compound, the “ABSOLUTE EOSINOPHIL” value [2] was 104 CELLS/uL, the “ABSOLUTE LYMPHOCYTE” value [2] was 12025 CELLS/uL and the “ABSOLUTE MONOCYTE” value [2] was 0 CELLS/uL. For the same compound, the “ABSOLUTE SEGMENTED NEUTROPHIL” value [2] was 871 CELLS/uL, the BASOPHIL [2] was 0% and the EOSINOPHIL [2] was 0.67%. For the same compound, the “ERYTHROCYTE COUNT” value [2] was 5.47 x10E6/uL, the HEMATOCRIT [2] was 35.87% and the HEMOGLOBIN [2] was 13.93 G/DL. The “LEUKOCYTE COUNT” value [2] was 13 x10E3/uL, the LYMPHOCYTE [2] was 92.33% and the “MEAN CORPUSCULAR HEMOGLOBIN” value [2] was 25.53 pg. The “MEAN CORPUSCULAR HEMOGLOBIN CONCENTRATION” value [2] was 38.9 G/DL, the “MEAN CORPUSCULAR VOLUME” value [2] was 65.6 fL and the MONOCYTE [2] was 0%. The NEUTROPHIL [2] was 7%, the “NUCLEATED RED BLOOD CELLS” value [2] was 0.33 /100WBC and the “PLATELET COUNT” value [2] was 1274.33 x10E3/uL. The “ALANINE AMINOTRANSFERASE” value [2] was 48 u/L, the ALBUMIN [2] was 4.27 G/DL and the “ALKALINE PHOSPHATASE” value [2] was 367.33 u/L. The “ASPARTATE AMINOTRANSFERASE” value [2] was 83 u/L, the “BLOOD UREA NITROGEN” value [2] was 15.67 mg/dL and the “CARBON DIOXIDE” value [2] was 26.33 mmol/L. For the same compound, the CHLORIDE [2] was 101 MEQ/L, the CHOLESTEROL [2] was 76.33 mg/dL and the “CREATINE PHOSPHOKINASE” value [2] was 353 u/L. For the same compound, the CREATININE [2] was 0.16 mg/dL, the GLUCOSE [2] was 179.67 mg/dL and the “LACTATE DEHYDROGENASE” value [2] was 147.67 u/L. For the same compound, the LIPASE [2] was 8.67 u/L, the PHOSPHORUS [2] was 12.13 mg/dL and the POTASSIUM [2] was 7.07 MEQ/L. The SODIUM [2] was 141.77 MEQ/L, the “TOTAL BILIRUBIN” value [2] was 0.13 mg/dL and the “TOTAL PROTEIN” value [2] was 5.97 G/DL. The “URIC ACID” value [2] was 2.27 mg/dL, the “ABSOLUTE BASOPHIL” value [3] was 0 CELLS/uL and the “ABSOLUTE EOSINOPHIL” value [3] was 55 CELLS/uL. The “ABSOLUTE LYMPHOCYTE” value [3] was 14551 CELLS/uL, the “ABSOLUTE MONOCYTE” value [3] was 220 CELLS/uL and the “ABSOLUTE SEGMENTED NEUTROPHIL” value [3] was 1207.33 CELLS/uL. The BASOPHIL [3] was 0%, the EOSINOPHIL [3] was 0.33% and the “ERYTHROCYTE COUNT” value [3] was 5.53 x10E6/uL. For the same compound, the HEMATOCRIT [3] was 35.67%, the HEMOGLOBIN [3] was 14.13 G/DL and the “LEUKOCYTE COUNT” value [3] was 16.03 x10E3/uL. The LYMPHOCYTE [3] was 90.67%, the “MEAN CORPUSCULAR HEMOGLOBIN” value [3] was 25.6 pg and the “MEAN CORPUSCULAR HEMOGLOBIN CONCENTRATION” value [3] was 39.63 G/DL. The “MEAN CORPUSCULAR VOLUME” value [3] was 64.5 fL, the MONOCYTE [3] was 1.33% and the NEUTROPHIL [3] was 7.67%. The “NUCLEATED RED BLOOD CELLS” value [3] was 0.33 /100WBC, the “PLATELET COUNT” value [3] was 1257 x10E3/uL and the “ALANINE AMINOTRANSFERASE” value [3] was 71 u/L. For the same compound, the ALBUMIN [3] was 4.27 G/DL, the “ALKALINE PHOSPHATASE” value [3] was 404.67 u/L and the “ASPARTATE AMINOTRANSFERASE” value [3] was 85 u/L. For the same compound, the “BLOOD UREA NITROGEN” value [3] was 14 mg/dL, the “CARBON DIOXIDE” value [3] was 37 mmol/L and the CHLORIDE [3] was 99.33 MEQ/L. The CHOLESTEROL [3] was 76 mg/dL, the “CREATINE PHOSPHOKINASE” value [3] was 183.33 u/L and the CREATININE [3] was 0.17 mg/dL. The GLUCOSE [3] was 141.67 mg/dL, the “LACTATE DEHYDROGENASE” value [3] was 103.33 u/L and the LIPASE [3] was 9.67 u/L. For the same compound, the PHOSPHORUS [3] was 10.07 mg/dL, the POTASSIUM [3] was 6.57 MEQ/L and the SODIUM [3] was 143.77 MEQ/L. For the same compound, the “TOTAL BILIRUBIN” value [3] was 0.2 mg/dL, the “TOTAL PROTEIN” value [3] was 5.83 G/DL and the “URIC ACID” value [3] was 1.53 mg/dL. For the same compound, the “ABSOLUTE BASOPHIL” value [4] was 0 CELLS/uL, the “ABSOLUTE EOSINOPHIL” value [4] was 0 CELLS/uL and the “ABSOLUTE LYMPHOCYTE” value [4] was 19193.67 CELLS/uL. For the same compound, the “ABSOLUTE MONOCYTE” value [4] was 792.67 CELLS/uL, the “ABSOLUTE SEGMENTED NEUTROPHIL” value [4] was 3680.33 CELLS/uL and the BASOPHIL [4] was 0%. The EOSINOPHIL [4] was 0%, the “ERYTHROCYTE COUNT” value [4] was 5.35 x10E6/uL and the HEMATOCRIT [4] was 35.1%. The HEMOGLOBIN [4] was 14.13 G/DL, the “LEUKOCYTE COUNT” value [4] was 23.67 x10E3/uL and the LYMPHOCYTE [4] was 81.33%. The “MEAN CORPUSCULAR HEMOGLOBIN” value [4] was 26.43 pg, the “MEAN CORPUSCULAR HEMOGLOBIN CONCENTRATION” value [4] was 40.27 G/DL and the “MEAN CORPUSCULAR VOLUME” value [4] was 65.7 fL. The MONOCYTE [4] was 3.67%, the NEUTROPHIL [4] was 15% and the “NUCLEATED RED BLOOD CELLS” value [4] was 0.33 /100WBC. The “PLATELET COUNT” value [4] was 1282 x10E3/uL, the “ALANINE AMINOTRANSFERASE” value [4] was 57.67 u/L and the ALBUMIN [4] was 4.27 G/DL. The “ALKALINE PHOSPHATASE” value [4] was 338.33 u/L, the “ASPARTATE AMINOTRANSFERASE” value [4] was 86 u/L and the “BLOOD UREA NITROGEN” value [4] was 16.33 mg/dL. For the same compound, the “CARBON DIOXIDE” value [4] was 36 mmol/L, the CHLORIDE [4] was 103 MEQ/L and the CHOLESTEROL [4] was 72.33 mg/dL. The “CREATINE PHOSPHOKINASE” value [4] was 309 u/L, the CREATININE [4] was 0.24 mg/dL and the GLUCOSE [4] was 135 mg/dL. For the same compound, the “LACTATE DEHYDROGENASE” value [4] was 379.67 u/L, the LIPASE [4] was 10 u/L and the PHOSPHORUS [4] was 10.8 mg/dL. For the same compound, the POTASSIUM [4] was 7.71 MEQ/L, the SODIUM [4] was 141.33 MEQ/L and the “TOTAL BILIRUBIN” value [4] was 0.2 mg/dL. The “TOTAL PROTEIN” value [4] was 5.9 G/DL and the “URIC ACID” value [4] was 1.2 mg/dL.
